Experimental data taken from PubChem BioAssay AID1963871 (Molecular Pharmacology Branch, DTP, NCI, 2024).

System: KRAS-mutant PDC multicell tumor spheroid viability
Assay: Anticancer human tumor 521955-158-R2-J5-PDC patient-derived pancreatic carcinoma cell line growth inhibition [KRAS2]
Details: for viability, T/C: stronger effect = lower value
From the text: Multicellular complex tumor spheroid response to RAS pathway inhibitors in combination with a targeted agents in patient-derived cell lines with oncogenic KRAS variants from multiple cancer types
A high-throughput screen of multi-cell type tumor spheroids was designed to identify active combinations of targeted small molecules and KRAS pathway inhibitors. Complex spheroids include a stromal component modeled by human endothelial cells (HUVEC) and fibroblasts modeled by human mesenchymal stem cells (MSCs). The concentration ranges selected for each drug and investigational agent were based upon clinically achievable concentrations if the clinical Cmax of the agent was known.
Compounds. The drugs and investigational agents: BI-3406 (NSC825286), BAY-293 (NSC824723), batoprotafib (TNO155; NSC825523), sotorasib (AMG 510; NSC818433), MRTX1257 (NSC819558), elimusertib (BAY 1895344; NSC800525), molibresib (GSK525762; NSC774829), temuterkib (LY3214996; NSC803410), venetoclax (NSC766270), alisertib (NSC759677), olaparib (NSC753686), talazoparib (NSC767125), erdafitinib (NSC781556), ipatasertib (NSC767898), cabozantinib (NSC761068), nintedanib (NSC756659), abemaciclib (NSC768073), docetaxel (NSC628503), trametinib (NSC758246), and sapanisertib (NSC764658) were obtained from the National Cancer Institute (NCI) Developmental Therapeutics Program Chemical Repository. The FDA-approved anticancer drug set is available from the Developmental Therapeutics Program. […] The stock solutions were prepared in dimethyl sulfoxide (DMSO, Sigma-Aldrich, St. Louis, MO, cat. D2650) at 800-fold the tested concentration and stored at -70 degrees C prior to their use. All drugs and investigational agents were tested over a range starting from a high concentration at or near the clinical Cmax and decreasing in half-log increments. If the clinical Cmax for an agent had not been determined, the highest concentration tested was 10 microM.
Cell Culture. All cells were maintained in an incubator at 37 degrees C and 5% CO2 with 95% humidity. The PDC lines were cultured according to standard operating procedures established by the NCI PDMR (https://pdmr.cancer.gov/sops/default.htm). Briefly, all PDCs were thawed and cultured in Matrigel-coated flasks prepared with a working solution of 1X Ham's F-12 nutrient mix, without supplementation (Invitrogen, Waltham, MA, cat. 11765054), 100 U/mL penicillin-streptomycin (Invitrogen, cat. 15140122), and 2.5% Matrigel (Corning Inc., Corning, NY, cat. 354248) for the first three passages. All PDCs were cultured in complete DMEM/F-12 media containing advanced DMEM/F-12 (Invitrogen, cat. 12634028), 4.9% defined fetal bovine serum, heat inactivated (HyClone Laboratories Inc., Logan, UT, cat. SH30070.03HI), 389 ng/mL hydrocortisone (Sigma-Aldrich, cat. H4001), 9.7 ng/mL human EGF recombinant protein (Invitrogen, cat. PHG0313), 23.4 microg/mL adenine (Sigma-Aldrich, cat. A2786), 97.3 U/mL penicillin-streptomycin (Invitrogen, cat. 15140122), 1.9 mM L-glutamine (Invitrogen, cat. 25030081), and 9.7 microM Y-27632 dihydrochloride (Tocris Bioscience, Bristol, United Kingdom, cat. 1254). The PDCs were cultured in complete DMEM/F12 media without 9.7 microM Y-27632 dihydrochloride for at least two passages prior to the screen. The established cell line HOP-62 was cultured in RPMI 1640 medium, HEPES (Invitrogen, cat. 22400105) with 10% defined fetal bovine serum (HyClone Laboratories Inc., cat. SH30070.03) and 2 mM L-glutamine (Invitrogen, cat. 25030081). The pooled donor HUVEC were cultured in endothelial cell growth medium 2 (PromoCell, Heidelberg, Germany, cat. C-22011) and the hMSC were cultured in mesenchymal stem cell growth medium 2 (PromoCell, cat. C-28009). For all experiments, HUVEC and hMSC were used at passages </=5, while the malignant cell lines were used at passages </=15. […]

[1] = compound alone, run of 08/26/2021
[2] = compound alone, run of 09/02/2021
[3] = curve of first compound, second compound 0.1 µM
[4] = curve of first compound, second compound 0.316 µM
[5] = curve of first compound, second compound 1 µM
[6] = curve of first compound, second compound 3.16 µM
[7] = curve of first compound, second compound 10 µM
[8] = second compound 0.1 µM, first compound 0.01 µM
[9] = second compound 0.1 µM, first compound 0.0316 µM
[10] = second compound 0.1 µM, first compound 0.1 µM
[11] = second compound 0.1 µM, first compound 0.316 µM
[12] = second compound 0.1 µM, first compound 1 µM
[13] = second compound 0.1 µM, first compound 3.16 µM
[14] = second compound 0.316 µM, first compound 0.01 µM
[15] = second compound 0.316 µM, first compound 0.0316 µM
[16] = second compound 0.316 µM, first compound 0.1 µM
[17] = second compound 0.316 µM, first compound 0.316 µM
[18] = second compound 0.316 µM, first compound 1 µM
[19] = second compound 0.316 µM, first compound 3.16 µM
[20] = second compound 1 µM, first compound 0.01 µM
[21] = second compound 1 µM, first compound 0.0316 µM
[22] = second compound 1 µM, first compound 0.1 µM
[23] = second compound 1 µM, first compound 0.316 µM
[24] = second compound 1 µM, first compound 1 µM
[25] = second compound 1 µM, first compound 3.16 µM
[26] = second compound 3.16 µM, first compound 0.01 µM
[27] = second compound 3.16 µM, first compound 0.0316 µM
[28] = second compound 3.16 µM, first compound 0.1 µM
[29] = second compound 3.16 µM, first compound 0.316 µM
[30] = second compound 3.16 µM, first compound 1 µM
[31] = second compound 3.16 µM, first compound 3.16 µM
[32] = second compound 10 µM, first compound 0.01 µM
[33] = second compound 10 µM, first compound 0.0316 µM
[34] = second compound 10 µM, first compound 0.1 µM
[35] = second compound 10 µM, first compound 0.316 µM
[36] = second compound 10 µM, first compound 1 µM
[37] = second compound 10 µM, first compound 3.16 µM
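Also: viability read after seven days of drug exposure.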

| SMILES | IC50 [1] | IC50 [2] | IC50 [3] | IC50 [4] | IC50 [5] | IC50 [6] | IC50 [7] | viability, T/C [8] | viability, T/C [9] | viability, T/C [10] | viability, T/C [11] | viability, T/C [12] | viability, T/C [15] | viability, T/C [16] | viability, T/C [21] | viability, T/C [22] | viability, T/C [27] | viability, T/C [28] | viability, T/C [33] | viability, T/C [34] | other results |
| --- | --- | --- | --- | --- | --- | --- | --- | --- | --- | --- | --- | --- | --- | --- | --- | --- | --- | --- | --- | --- | --- |
| C=CC(=O)N1CCN(c2nc(OCC3CCCN3C)nc3c2CCN(c2cccc4cccc(C)c24)C3)CC1CC#N (stereo not given) | 1.71 µM [middle of 5 runs] | 1.82 µM [middle of 6 runs] | – | – | – | – | – | – | – | – | – | – | – | – | – | – | – | – | – | – | – |
| COc1cc2nc(C)nc(NC(C)c3cc(N)cc(C(F)(F)F)c3)c2cc1OC1CCOC1 (stereo not given) | > 10000 nM | > 10000 nM | – | – | – | – | – | – | – | – | – | – | – | – | – | – | – | – | – | – | viability, T/C (compound 0.1 µM): 87.8% [middle of 17 runs] |
| CC(=O)OC12COC1CC(O)C1(C)C(=O)C(O)C3=C(C)C(OC(=O)C(O)C(NC(=O)OC(C)(C)C)c4ccccc4)CC(O)(C(OC(=O)c4ccccc4)C21)C3(C)C (stereo not given) + C=CC(=O)N1CCN(c2nc(=O)n(-c3c(C)ccnc3C(C)C)c3nc(-c4c(O)cccc4F)c(F)cc23)C(C)C1 | – | – | < 10 nM | < 10 nM | < 10 nM | < 10 nM | < 10 nM | 21.5% | 15.5% | 15.1% | 15.4% | 15.7% | 13.3% | 11.5% | 10.9% | 10.9% | 10.9% | 6.69% | 13.1% | 9.39% | viability, T/C [13]: 17.4%; viability, T/C [14]: 22.5%; viability, T/C [17]: 12.6%; viability, T/C [18]: 13.6%; viability, T/C [19]: 20%; viability, T/C [20]: 15%; viability, T/C [23]: 12%; viability, T/C [24]: 11.9%; viability, T/C [25]: 12.1%; viability, T/C [26]: 17.5%; viability, T/C [29]: 7.49%; viability, T/C [30]: 11.8%; viability, T/C [31]: 16.2%; viability, T/C [32]: 20.7%; viability, T/C [35]: 9.36%; viability, T/C [36]: 12.5%; viability, T/C [37]: 12.7% |
| CN(C)C/C=C/C(=O)Nc1cc2c(Nc3ccc(F)c(Cl)c3)ncnc2cc1O[C@H]1CCOC1 + C=CC(=O)N1CCN(c2nc(=O)n(-c3c(C)ccnc3C(C)C)c3nc(-c4c(O)cccc4F)c(F)cc23)C(C)C1 | – | – | > 100 nM | > 100 nM | > 100 nM | > 100 nM | 75.8 nM | 97.2% | 98.6% | 80.5% | – | – | 90.6% | 76.7% | 85.2% | 71% | 59.4% | 69.2% | 51.9% | 49.7% | viability, T/C (second compound 0.1 µM, first compound 0.000316 µM): 124%; viability, T/C (second compound 0.1 µM, first compound 0.001 µM): 118%; viability, T/C (second compound 0.1 µM, first compound 0.00316 µM): 93.8%; viability, T/C (second compound 0.316 µM, first compound 0.000316 µM): 133%; viability, T/C (second compound 0.316 µM, first compound 0.001 µM): 134%; viability, T/C (second compound 0.316 µM, first compound 0.00316 µM): 103%; viability, T/C [14]: 88.5%; viability, T/C (second compound 1 µM, first compound 0.000316 µM): 120%; viability, T/C (second compound 1 µM, first compound 0.001 µM): 120%; viability, T/C (second compound 1 µM, first compound 0.00316 µM): 99.8%; viability, T/C [20]: 84.9%; viability, T/C (second compound 3.16 µM, first compound 0.000316 µM): 99.4%; viability, T/C (second compound 3.16 µM, first compound 0.001 µM): 104%; viability, T/C (second compound 3.16 µM, first compound 0.00316 µM): 89.5%; viability, T/C [26]: 77%; viability, T/C (second compound 10 µM, first compound 0.000316 µM): 67.4%; viability, T/C (second compound 10 µM, first compound 0.001 µM): 72.4%; viability, T/C (second compound 10 µM, first compound 0.00316 µM): 55.7%; viability, T/C [32]: 57.5% |
| O=C(c1cc(Cc2n[nH]c(=O)c3ccccc23)ccc1F)N1CCN(C(=O)C2CC2)CC1 + C=CC(=O)N1CCN(c2nc(=O)n(-c3c(C)ccnc3C(C)C)c3nc(-c4c(O)cccc4F)c(F)cc23)C(C)C1 | – | – | > 10000 nM | > 10000 nM | > 10000 nM | > 10000 nM | > 10000 nM | – | 115% | 120% | 97.1% | 89.6% | 122% | 110% | 122% | 115% | 99.1% | 109% | 63.5% | 61.9% | viability, T/C [13]: 94.2%; viability, T/C (second compound 0.1 µM, first compound 10 µM): 64.8%; viability, T/C [17]: 116%; viability, T/C [18]: 103%; viability, T/C [19]: 93.1%; viability, T/C (second compound 0.316 µM, first compound 10 µM): 77.7%; viability, T/C [23]: 122%; viability, T/C [24]: 103%; viability, T/C [25]: 92.9%; viability, T/C (second compound 1 µM, first compound 10 µM): 73.5%; viability, T/C [29]: 93.9%; viability, T/C [30]: 102%; viability, T/C [31]: 92.6%; viability, T/C (second compound 3.16 µM, first compound 10 µM): 68.9%; viability, T/C [35]: 65.6%; viability, T/C [36]: 66.2%; viability, T/C [37]: 68.9%; viability, T/C (second compound 10 µM, first compound 10 µM): 43.4% |
